From PMC9579956 (RSC Medicinal Chemistry, 2022)

biological target: Mycobacterium thermoresistible (Mtr) LpqY (Mycolicibacterium thermoresistibile, UniProt G7CES0); type: binding; conditions: single dose MST screen against LpqY
Sequence (G7CES0 29-471): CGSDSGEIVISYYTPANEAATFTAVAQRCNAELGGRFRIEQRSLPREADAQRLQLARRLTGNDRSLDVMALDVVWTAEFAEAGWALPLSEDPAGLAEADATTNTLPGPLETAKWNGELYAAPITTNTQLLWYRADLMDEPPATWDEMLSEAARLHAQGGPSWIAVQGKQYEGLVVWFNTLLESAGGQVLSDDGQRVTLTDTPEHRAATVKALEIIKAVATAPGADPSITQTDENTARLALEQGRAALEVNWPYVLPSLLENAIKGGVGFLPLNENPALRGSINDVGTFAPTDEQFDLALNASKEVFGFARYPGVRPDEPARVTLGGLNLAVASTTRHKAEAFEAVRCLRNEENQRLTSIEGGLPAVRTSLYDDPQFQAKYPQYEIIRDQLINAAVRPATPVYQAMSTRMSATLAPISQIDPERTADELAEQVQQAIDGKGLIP

`OCCc1ccc(Nc2nccc(-c3nnc4ccccn34)n2)cc1` [MMV028694] and `O=C(Nc1cnc2ccccc2c1)c1cccc(-n2cnnn2)c1` [MMV084864] are the same in “Pathogen Box screen signal/noise ratio” value: 1.5 for the first, 1.5 for the second.

First: O=C(NCCc1ccccc1)c1cc(-c2cccnc2)cnc1NCC1CC1 [MMV026490]
Second: CNC(=O)CNc1nc(-c2ccccn2)nc2scc(-c3ccccc3)c12 [MMV1029203]
The “Pathogen Box screen signal/noise ratio” value of the first is higher: 1.4 for the first, 0.463 for the second.

First: Cc1ccccc1CN1CCC(O)(c2ccc(Cl)c(C(F)(F)F)c2)CC1 [MMV688846]
Second: COc1cc(CN2CCC3(C=Cc4ccccc43)CC2)cc2c1OCO2 [MMV688941]
The “Pathogen Box screen signal/noise ratio” value of the first is lower: 0.25 for the first, 0.5 for the second.

Going from `O=C(c1ccc(NCCO)cc1)C1C[C@H]1c1ccc(Cl)cc1` (some centres unmarked) [MMV676877] to `Cc1cnc(CCNC(=O)c2cc(-c3ccc(Cl)cc3)cs2)[nH]1` [MMV676350], the “Pathogen Box screen signal/noise ratio” value rises from 0.0 to 1.3.

Compared with `CCc1ccc(S(=O)(=O)Nc2cc(CN3CCN(CCC(C)C)CC3)ccc2C)cc1` [MMV688124], `O=C1N(Cc2cc3ccccc3s2)CC2CN(Cc3ccccc3)CCN12` (centres unmarked) [MMV084603] is higher in “Pathogen Box screen signal/noise ratio” value: 0.85 for the first, 1.3 for the second.

Compared with `COC(=O)c1cccc2oc(-c3cccc(OC)c3NC(=O)c3cc(-c4ccccc4)on3)nc12` [MMV676186], `N=C(N)c1ccc(-c2cc(-c3ccccc3)on2)cc1` [MMV688514] is higher in “Pathogen Box screen signal/noise ratio” value: 0.1 for the first, 1.1 for the second.

Going from `CC(C)(C)C(=O)N(CCCCCCN1C[C@H](O)[C@@H](O)[C@H](O)[C@H]1CO)C1CCCCCC1` [MMV688543] to `Cc1cc(Cl)c(S(=O)(=O)N2CCCC2)cc1OCC(=O)NC1CCCCC1` [MMV006833], the “Pathogen Box screen signal/noise ratio” value rises from 1.3 to 1.6.

Compared with `Cc1cccc(-c2nc(Nc3ccncn3)c3sccc3n2)n1` [MMV688122], `COc1cccc(-c2cc3c(Nc4cccnc4)nccc3[nH]2)c1` [MMV392832] is higher in “Pathogen Box screen signal/noise ratio” value: 1.3 for the first, 2.1 for the second.

First: CC[C@H](CO)NCCN[C@H](CC)CO [MMV687801]
Second: CCCCc1ccc(NC(=O)Nc2ccc(O[C@H]3CCCC[C@@H]3N(C)c3ccccc3)c(F)c2)cc1 [MMV676063]
The “Pathogen Box screen signal/noise ratio” value of the first is higher: 1.5 for the first, 0.0 for the second.

Compared with `CO[C@@H](C(=O)N1Cc2[nH]nc(NC(=O)c3ccc(N4CCN(C)CC4)cc3)c2C1)c1ccccc1` [MMV676600], `COC(=O)Nc1nc2cc(C(=O)c3ccccc3)ccc2[nH]1` [MMV003152] is higher in “Pathogen Box screen signal/noise ratio” value: 0.6 for the first, 1.9 for the second.

Going from `Cc1ccc(NC(=O)c2cc(S(=O)(=O)NC(C)(C)C)ccc2C)nc1` [MMV020289] to `Cc1cccc(NC(=O)c2cc(S(=O)(=O)N(C)c3ccc(F)cc3)ccc2Cl)n1` [MMV676528], the “Pathogen Box screen signal/noise ratio” value falls from 1.4 to 1.1.

Going from `CC(Oc1cccc(Cl)c1)C(=O)Nc1ccc2oc(-c3ccncc3)nc2c1` (centres unmarked) [MMV688472] to `O=C(CN1CCOCC1)Nc1ccc2ncnc(Nc3ccc(OCc4cccc(F)c4)c(Cl)c3)c2c1` [MMV688274], the “Pathogen Box screen signal/noise ratio” value rises from 0.7 to 1.0.

Going from `COc1ccc(C(=N)N)cc1-c1cn(-c2ccc(C(=N)N)cc2)nn1` [MMV675998] to `COc1ccc(-c2cnc3ccc(NCc4ccc(S(N)(=O)=O)cc4)nn23)cn1` [MMV010545], the “Pathogen Box screen signal/noise ratio” value falls from 1.0 to 0.463.

Compared with `c1ccc(Oc2ccc(-c3cncc(-c4ccc5[nH]ccc5c4)n3)cc2)cc1` [MMV688178], `c1ccc(Oc2ccc(-c3cc(N4CCOCC4)[nH]n3)cc2)cc1` [MMV045105] is higher in “Pathogen Box screen signal/noise ratio” value: 1.0 for the first, 1.1 for the second.

Going from `CCCn1c(CNc2ccccc2O)nc2ccccc21` [MMV676445] to `CCc1nn(C)c(C(=O)NCc2ccc(Oc3ccc(C)cc3)cc2)c1Cl` [MMV688934], the “Pathogen Box screen signal/noise ratio” value rises from 0.8 to 1.5.

Compared with `O=C(C1CCN(c2nnc(-n3cccc3)s2)CC1)N1CCC(Cc2ccccc2)CC1` [MMV676478], `O=C(C1CCCCC1)N1CC(=O)N2CCc3ccccc3C2C1` (centres unmarked) [MMV002529] is lower in “Pathogen Box screen signal/noise ratio” value: 0.661 for the first, 0.167 for the second.

Going from `CC(c1cc(Cl)cc(Cl)c1)N(C)c1ncc2c(N)nc(N)nc2n1` (centres unmarked) [MMV689437] to `O=C(NCc1cc(Cl)cc(Cl)c1)c1c(C(F)(F)F)nc2ccccn12` [MMV687699], the “Pathogen Box screen signal/noise ratio” value rises from 0.187 to 0.8.

First: O=C(Nc1nnc(S)s1)c1cc(Br)ccc1Cl [MMV676492]
Second: Brc1c(-c2ccc3c(c2)OCO3)nc2ncccn12 [MMV676377]
The “Pathogen Box screen signal/noise ratio” value of the first is lower: 0.9 for the first, 2.9 for the second.

Compared with `COc1ccc(-c2cncc3ccc(C(=O)NCCCn4ccnc4)nc23)cc1` [MMV020670], `COc1ccc(C2=NN(C3CCCCCC3)C(=O)[C@@H]3CC=CC[C@H]23)cc1OCCCCOc1ccc(-c2nn[nH]n2)cc1` [MMV690027] is lower in “Pathogen Box screen signal/noise ratio” value: 2.7 for the first, 0.9 for the second.

Compared with `CCn1cnc2c(Nc3cc(F)cc(F)c3)nc(C#N)nc21` [MMV676881], `Cc1nn(C(=O)Nc2cccc(C(F)(F)F)c2)c(C)c1Sc1ncccn1` [MMV688552] is higher in “Pathogen Box screen signal/noise ratio” value: 0.536 for the first, 0.8 for the second.

First: O=C1O[C@@H](COc2ccon2)CN1c1cc(F)c(C2=CCN(Cc3ccccc3)CC2)c(F)c1 [MMV687813]
Second: O=C(OCc1ccccc1)N1CCC(c2cc(-c3ccncc3)c(-c3ccc(F)cc3)[nH]2)CC1 [MMV688509]
The “Pathogen Box screen signal/noise ratio” value of the first is higher: 1.0 for the first, 0.0833 for the second.

Going from `CCN(CC)S(=O)(=O)c1ccc(C(=O)Nc2cc(C)nn2-c2nc(C)c(C)c(=O)[nH]2)cc1` [MMV595321] to `Cc1cccc(Cn2ccc(NC(=O)c3ccc4c(c3)OCO4)n2)c1` [MMV676386], the “Pathogen Box screen signal/noise ratio” value rises from 0.167 to 2.9.

First: COc1ccc(C2=NN(C3CCCCCC3)C(=O)C2(C)C)cc1OCc1ccccn1 [MMV688360]
Second: CCOc1ccc2cc(-c3nn(CC4CCN(C)CC4)c4ncnc(N)c34)ccc2c1 [MMV688854]
The “Pathogen Box screen signal/noise ratio” value of the first is higher: 1.5 for the first, 1.2 for the second.

Compared with `CNc1cc(C)nc(C2CN(C(=O)c3n[nH]c4ccccc34)CCO2)c1` (centres unmarked) [MMV689709], `NS(=O)(=O)c1cccc(-c2ccc3ncc(N4CCOCC4)nc3c2)c1` [MMV023860] is lower in “Pathogen Box screen signal/noise ratio” value: 2.1 for the first, 1.6 for the second.

Compared with `Cc1ccc(C(=O)Nc2ccc(S(=O)(=O)O)c3cc(S(=O)(=O)O)cc(S(=O)(=O)O)c23)cc1NC(=O)c1cccc(NC(=O)Nc2cccc(C(=O)Nc3cc(C(=O)Nc4ccc(S(=O)(=O)O)c5cc(S(=O)(=O)O)cc(S(=O)(=O)O)c45)ccc3C)c2)c1` [MMV637953], `CCOC(=O)c1cc(-c2csc(Nc3c(C)cc(C)cc3C)n2)on1` [MMV676461] is higher in “Pathogen Box screen signal/noise ratio” value: 0.7 for the first, 2.4 for the second.
